Experimental findings from patent publication US20080027008A1, “Antitumorigenic Drug Combination” (priority 2006, published 2008) are described below.

The subject of this test is Dogs with Lymphoma. Put plainly: Efficacy Study for Treatment of Dogs with Lymphoma. It is filed as in vivo. The conditions noted are these: treatment received population of dogs. How it is done: Twenty-five (25) dogs of varying sex, weight, breed and age (5.5-14.0 yrs) were entered for the study. […] All dogs entered for study had received prior chemotherapy and enrolled to the study following disease relapse.
All dogs were treated with N-[2-[(4-HYDROXYPHENYL)AMINO]-3-PYRIDYL]-4-METHOXYBENZENESULFONAMIDE at an initial dose of 350 mg/m2 PO QD for 7 days then treated at 350 mg/m2 EOD×21 days. If no significant objective response or doselimiting toxicities were noted after 28 days on therapy, a QD regimen was restarted for 7 days. Otherwise, dogs continued on EOD dosing until study discontinuation.
All dogs were treated with ABT-510 at a dose of 1 mg/kg SQ divided BID starting 24 hours after the first dose of N-[2-[(4-HYDROXYPHENYL)AMINO]-3-PYRIDYL]-4-METHOXYBENZENESULFONAMIDE was administered.
Dogs treated with N-[2-[(4-HYDROXYPHENYL)AMINO]-3-PYRIDYL]-4-METHOXYBENZENESULFONAMIDE and ABT-510 therapy were evaluated at Day 0, Day 7, Day 28 then every 28 days thereafter. Assessment of tumor burden was made based on measurement of target lymph nodes (no more than 3 nodes/animal). The lymph node volume (I×w×h) was calculated for each target lymph node and assessed as a sum of total tumor burden. Standard response endpoints were evaluated based on the criteria below: • Complete response (CR) is defined as disappearance of all clinical evidence of cancer and of any signs related to the cancer. • Partial response (PR) is defined as a 50% or greater decrease in the sum of the products of measurements for representative lesions, without an increase in size of any lesions or appearance of any new lesions. • Minimal response (MR) is defined as a 25% or greater decrease in the sum of the products of measurements for representative lesions, without an increase in size of any lesions or appearance of any new lesions. • Stable disease is defined as no response or a response of less than that defined for partial response or progressive disease without appearance of any new lesions or worsening of clinical signs. • Progressive disease is defined as an unequivocal increase of at least 50% in the size of any measurable lesion or appearance of new lesions.
The Intent-to-Treat population included all 25 dogs enrolled in the study. Five (5) dogs withdrew from the study early due to their inability to receive N-[2-[(4-HYDROXYPHENYL)AMINO]-3-PYRIDYL]-4-METHOXYBENZENESULFONAMIDE and ABT-510 longer than 7 days. Four (4) of these dogs withdrew due to rapid lymphoma progression. One (1) dog withdrew due to owner decision related to side effects while receiving study agents.
The Treatment Received population included dogs who received N-[2-[(4-HYDROXYPHENYL)AMINO]-3-PYRIDYL]-4-METHOXYBENZENESULFONAMIDE and ABT-510 therapy for longer than 7 days. […]

Structures are written as SMILES.

In the case of `COc1ccc(S(=O)(=O)Nc2cccnc2Nc2ccc(O)cc2)cc1` [Single Agent, N-[2-[(4-HYDROXYPHENYL)AMINO]-3-PYRIDYL]-4-METHOXYBENZENESULFONAMIDE], under “mean”, the “Response Duration, Mean” value is recorded as “Mean = 65 days” and the “Time to Progression, Mean” value was “Mean = 21 days”. Moreover, for the setting “median”, the “Response Duration, Median” value is “Median = 24 days” and the “Time to Progression, Median” value is “Median = 18 days”.
